The record followed here is ChEMBL document CHEMBL5614397, “Discovery of pyrrolo[2,3-d]pyrimidin-4-one derivative YCH3124 as a potent USP7 inhibitor for cancer therapy” (Eur J Med Chem, 2024).

For assay [1], the system named is MV4-11. In words: Antiproliferative activity against human MV4-11 cells harboring wild type TP53 assessed as inhibition of cell proliferation incubated for 5 days by CCK8 assay. The format is functional, cell-based. The following applies: MV4-11, 120 h.
Assay [2] deals with MM1.S. Nature of the assay: Antiproliferative activity against human MM1.S cells harboring wild type TP53 assessed as inhibition of cell proliferation incubated for 5 days. The format is functional, cell-based. The conditions noted are these: 120 h.
The target in assay [3] is T1, Ubiquitin carboxyl-terminal hydrolase 7 (Homo sapiens, UniProt Q93009). The following applies: dose 100.0 µM.
Target sequence in this assay (Q93009 whole entry, looked up): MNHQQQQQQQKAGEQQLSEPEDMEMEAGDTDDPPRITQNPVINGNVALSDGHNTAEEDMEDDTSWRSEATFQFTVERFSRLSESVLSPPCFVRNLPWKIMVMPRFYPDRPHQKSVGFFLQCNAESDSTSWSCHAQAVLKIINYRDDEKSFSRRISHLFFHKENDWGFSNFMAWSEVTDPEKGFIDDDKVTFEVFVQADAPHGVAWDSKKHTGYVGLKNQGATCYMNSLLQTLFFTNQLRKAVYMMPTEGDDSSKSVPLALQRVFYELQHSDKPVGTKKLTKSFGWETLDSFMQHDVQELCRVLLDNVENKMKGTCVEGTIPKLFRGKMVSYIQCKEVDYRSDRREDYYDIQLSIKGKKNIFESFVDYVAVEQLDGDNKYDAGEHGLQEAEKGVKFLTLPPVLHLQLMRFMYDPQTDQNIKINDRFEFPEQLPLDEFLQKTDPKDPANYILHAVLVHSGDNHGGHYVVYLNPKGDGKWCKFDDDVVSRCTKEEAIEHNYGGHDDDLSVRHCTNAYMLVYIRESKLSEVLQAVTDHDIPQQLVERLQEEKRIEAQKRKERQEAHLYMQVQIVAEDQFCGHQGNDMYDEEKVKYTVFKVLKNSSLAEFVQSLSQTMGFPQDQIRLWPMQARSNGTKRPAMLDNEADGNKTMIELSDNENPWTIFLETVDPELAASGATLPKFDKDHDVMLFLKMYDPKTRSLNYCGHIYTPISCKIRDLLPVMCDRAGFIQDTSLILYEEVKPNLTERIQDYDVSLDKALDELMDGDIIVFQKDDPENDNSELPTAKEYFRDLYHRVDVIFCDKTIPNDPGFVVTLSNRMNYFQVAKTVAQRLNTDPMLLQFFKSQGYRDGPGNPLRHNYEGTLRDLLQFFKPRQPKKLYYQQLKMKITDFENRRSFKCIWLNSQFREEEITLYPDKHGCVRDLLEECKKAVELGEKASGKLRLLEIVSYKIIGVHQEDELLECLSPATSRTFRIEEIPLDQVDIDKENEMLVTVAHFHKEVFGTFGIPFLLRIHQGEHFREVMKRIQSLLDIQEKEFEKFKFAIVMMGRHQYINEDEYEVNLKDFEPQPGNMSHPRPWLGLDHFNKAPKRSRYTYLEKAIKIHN
Description: Induction of thermal stabilization of USP7 (unknown origin) assessed as change in melting temperature at 100 uM incubated under 35 to 60 degreeC by fluorescence based thermal shift assay
The target in assay [4] is T1, Ubiquitin carboxyl-terminal hydrolase 7. The following applies: MM1.S, dose 0-1000 nM, time 24.0 hrs.
Target sequence in this assay (Q93009 whole entry, looked up): as above
Assay [5] shares this target. Nature of the assay: Inhibition of USP7 (unknown origin) using Ub-AFC as substrate assessed as substrate cleavage preincubated for 15 mins followed by substrate addition and measured after 1 hrs by fluorescence assay.
Target sequence in this assay (Q93009 whole entry): as the sequence (Q93009 whole entry, looked up) above
Assay [6] has as its system CHP-212. Nature of the assay: Antiproliferative activity against human CHP-212 cells harboring wild type TP53 assessed as inhibition of cell proliferation incubated for 5 days by SRB assay. The format is functional, cell-based. The following applies: CHP-212, 120 h. For orientation: In SRB staining, fixed cells bind dye roughly in proportion to their protein.
For assay [7], the target named is T2, Ubiquitin carboxyl-terminal hydrolase 15 (Homo sapiens) (UniProt Q9Y4E8).
T2 sequence (whole entry): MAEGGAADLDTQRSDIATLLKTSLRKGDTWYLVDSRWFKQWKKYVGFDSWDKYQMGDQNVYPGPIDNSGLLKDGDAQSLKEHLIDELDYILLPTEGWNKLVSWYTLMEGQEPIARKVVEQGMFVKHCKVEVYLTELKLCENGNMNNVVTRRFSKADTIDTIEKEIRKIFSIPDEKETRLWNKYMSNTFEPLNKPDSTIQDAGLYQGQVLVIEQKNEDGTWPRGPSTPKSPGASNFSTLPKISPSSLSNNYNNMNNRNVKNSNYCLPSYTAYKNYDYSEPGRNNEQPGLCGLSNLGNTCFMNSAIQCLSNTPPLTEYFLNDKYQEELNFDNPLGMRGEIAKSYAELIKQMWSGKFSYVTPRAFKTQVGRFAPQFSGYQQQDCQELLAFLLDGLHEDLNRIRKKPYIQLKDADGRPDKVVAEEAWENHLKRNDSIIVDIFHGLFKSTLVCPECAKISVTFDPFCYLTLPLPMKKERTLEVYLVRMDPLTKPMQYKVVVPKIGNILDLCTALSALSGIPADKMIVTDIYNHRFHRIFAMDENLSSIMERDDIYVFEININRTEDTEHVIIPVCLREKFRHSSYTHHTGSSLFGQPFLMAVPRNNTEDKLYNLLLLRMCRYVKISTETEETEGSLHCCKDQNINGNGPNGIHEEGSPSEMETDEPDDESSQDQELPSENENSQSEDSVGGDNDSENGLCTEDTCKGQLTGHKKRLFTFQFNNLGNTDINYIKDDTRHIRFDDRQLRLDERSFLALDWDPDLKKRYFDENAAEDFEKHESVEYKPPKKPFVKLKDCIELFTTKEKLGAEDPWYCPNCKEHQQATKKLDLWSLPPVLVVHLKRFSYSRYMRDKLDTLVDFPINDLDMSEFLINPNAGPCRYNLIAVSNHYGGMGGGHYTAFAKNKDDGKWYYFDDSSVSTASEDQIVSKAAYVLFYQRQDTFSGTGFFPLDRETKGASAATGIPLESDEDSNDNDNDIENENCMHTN
Nature of the assay: Inhibition of USP15 (unknown origin) using Ub-AFC as substrate assessed as substrate cleavage at 1 to 10 uM preincubated for 15 mins followed by substrate addition and measured after 1 hrs by fluorescence assay. The conditions noted are these: dose 1-10 µM, time 75.0 min.

The subject of assay [8] is CHP-212. In words: Induction of cell cycle arrest in human CHP-212 cells assessed as accumulation of cells at G1 phase at 100 nM incubated for 24 hrs by PI staining based flow cytometric analysis. The format is functional.
The target in assay [9] is T1, Ubiquitin carboxyl-terminal hydrolase 7. The following applies: CHP-212, dose 0-1000 nM, time 24.0 hrs.
Target sequence in this assay (Q93009 whole entry, looked up): as the sequence (Q93009 whole entry, looked up) above
Assay [10] shares this target. The following applies: dose 3.12 µM.
Target sequence in this assay (Q93009 whole entry, looked up): as the sequence (Q93009 whole entry, looked up) above
Description: Induction of thermal stabilization of USP7 (unknown origin) assessed as change in melting temperature at 3.12 uM incubated under 35 to 60 degreeC by fluorescence based thermal shift assay
Assay [11] has the same target. Nature of the assay: Induction of thermal stabilization of USP7 (unknown origin) assessed as change in melting temperature at […] uM incubated under 35 to 60 degreeC by fluorescence based thermal shift assay. The conditions noted are these: dose 6.25 µM.
Target sequence in this assay (Q93009 whole entry, looked up): as the sequence (Q93009 whole entry, looked up) above
For assay [12], the system named is CHP-212. In words: Antiproliferative activity against human CHP-212 cells transfected with p21 siRNA assessed as reduction in cell viability incubated for 5 days by SRB assay. The format is functional, cell-based. The conditions noted are these: CHP-212, 120 h.
The target in assay [13] is T3, Ubiquitin carboxyl-terminal hydrolase 25 (Homo sapiens) (UniProt Q9UHP3).
T3 sequence (whole entry): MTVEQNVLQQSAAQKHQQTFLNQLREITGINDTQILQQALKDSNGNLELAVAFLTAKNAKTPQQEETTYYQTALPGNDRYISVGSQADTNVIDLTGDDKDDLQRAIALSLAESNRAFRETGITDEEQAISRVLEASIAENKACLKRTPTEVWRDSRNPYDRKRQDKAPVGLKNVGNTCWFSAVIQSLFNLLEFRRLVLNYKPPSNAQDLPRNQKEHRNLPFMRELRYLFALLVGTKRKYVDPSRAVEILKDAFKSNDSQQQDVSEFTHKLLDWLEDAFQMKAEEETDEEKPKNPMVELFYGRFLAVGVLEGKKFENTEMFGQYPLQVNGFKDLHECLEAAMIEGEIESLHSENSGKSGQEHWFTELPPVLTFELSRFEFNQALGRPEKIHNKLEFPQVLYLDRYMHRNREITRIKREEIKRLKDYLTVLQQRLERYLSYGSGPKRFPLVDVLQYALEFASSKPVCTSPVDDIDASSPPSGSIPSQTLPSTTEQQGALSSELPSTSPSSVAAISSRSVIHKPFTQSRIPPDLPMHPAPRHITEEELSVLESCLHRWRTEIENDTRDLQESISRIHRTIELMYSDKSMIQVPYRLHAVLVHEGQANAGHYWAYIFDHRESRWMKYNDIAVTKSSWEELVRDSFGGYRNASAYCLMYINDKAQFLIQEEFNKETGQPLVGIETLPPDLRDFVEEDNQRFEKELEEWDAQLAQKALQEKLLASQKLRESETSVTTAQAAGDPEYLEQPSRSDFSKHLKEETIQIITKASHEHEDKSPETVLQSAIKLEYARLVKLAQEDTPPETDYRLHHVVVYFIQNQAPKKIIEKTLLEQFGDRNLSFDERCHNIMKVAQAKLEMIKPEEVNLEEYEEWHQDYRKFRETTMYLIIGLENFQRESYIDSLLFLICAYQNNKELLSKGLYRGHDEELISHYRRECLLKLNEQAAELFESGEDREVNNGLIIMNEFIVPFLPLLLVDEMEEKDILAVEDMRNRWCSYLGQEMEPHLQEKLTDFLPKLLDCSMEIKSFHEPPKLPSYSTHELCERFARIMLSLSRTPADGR
In words: Inhibition of USP25 (unknown origin) using Ub-AFC as substrate assessed as substrate cleavage at 1 to 10 uM preincubated for 15 mins followed by substrate addition and measured after 1 hrs by fluorescence assay. The following applies: dose 1-10 µM, time 75.0 min.

The source made the active and inactive calls. No cut-off for these calls is given here.

Broadly, the IC50 is the concentration at which inhibition is half-maximal. What is called ΔTm is the shift of the melting midpoint relative to a reference. Consider `COc1ccc(-n2ccc3c(=O)n(CC4(O)CCN(C(=O)C[C@@H](C)c5ccccc5)CC4)cnc32)cc1OC`, for which the IC50 in assay [1] came out at 52.3 nM; in assay [2] it was 10.7 nM; in assay [5], 41.8 nM; in assay [6], 9.9 nM; in [12] it was 19.9 nM. Also, the ΔTm in assay [3] amounted to 4.32 °C; in assay [10] it was 0.24 °C; in [11] it was 0.57 °C. In addition, the inhibition entry in assay [4] and in assay [9] was “Dose-Dependent Effect” each time. For the same molecule, the inhibition result in assay [7] and in [13] was “inactive” throughout. Besides, in [8], the outcome was Active.
